Laboratory results taken from patent US20220395500A1, “SMALL MOLECULE ACTIVATORS OF INTERFERON REGULATORY FACTOR 3 AND METHODS OF USE THEREOF” (Neuralexo, Inc., priority 2020, published 2022).
Read-outs that look alike come from different tables or passages of the source.

Columns and labels:
Format in all cases: cell-based, mouse
[1] = tested on: IRF-Lucia luciferase reporter (ISRE) in J774-Dual cells; test: J774-Dual IRF-Lucia luciferase reporter assay (ISRE activation)
Outline: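 Mouse J774-Dual macrophages, seeded in growth medium 24 h at 37 °C, 5% CO2 before treatment; secreted IRF-Lucia (ISRE-driven) and NF-κB-SEAP read with QUANTI-Luc and QUANTI-Blue. EC50 and CC50 from 8-point dose-response, cytotoxicity by CellTiter-Glo; ISRE:NF-κB ratio calculated.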

[2] = J774-Dual cytotoxicity; conditions: mouse, J774-Dual cells, read-out: J774 cytotox CC50
Outline: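 Orthogonal cross-species screen in mouse J774-Dual cells using 8-point dose-response format. Cytotoxicity measured in-plate by CellTiter-Glo luminescence, giving CC50 alongside EC50 and ISRE:NFκB ratios.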

[3] = tested on: NF-κB-SEAP reporter in J774-Dual cells; test: J774-Dual NF-κB-SEAP reporter assay; conditions: read-out: J774 NFkB EC50
Description: First, optimal assay conditions and assay quality in 384-well format were determined. As mentioned, the mouse macrophage J774 cell line (J774-Dual, InvivoGen) stably transfected with the same inducible reporters described above (e.g., IRF-Lucia luciferase and NF-κB-SEAP) was used. The responsiveness of the J774-Dual cell line was investigated in an array of assay conditions to obtain sensitive and reproducible results for the activation of the IRF and NF-κB reporters. An optimal plating density and conditions for these cells was established for these cells in a 384-well format. Assay work-flow is similar to that discussed above for the THP1-Dual assay without a need for cell differentiation. Thus, cells are seeded directly in growth medium and incubated at 37° C. in a 5% C02 incubator for 24 hours prior to the programmed treatments being added as described herein.
The primary high throughput screen used the HTS platform of human THP1 monocyte cells containing the IRF-Lucia luciferase and NFκB-SEAP (secreted embryonic alkaline phosphatase) dual reporter (THP1-Dual, Invivogen), enabling the simultaneous study of the IRF and NFκB signaling pathways respectively. As discussed, the Lucia luciferase reporter gene is under the control of an ISG54 (interferon-stimulated gene) minimal promoter in conjunction with five interferon-stimulated response elements (ISRE). The SEAP gene is driven by an IFNβ minimal promoter fused to five copies of the NFκB consensus transcriptional response element and three copies of the c-Rel binding site. Both IRF-Lucia luciferase and NFκB-SEAP reporter proteins are secreted and readily measurable in the cell culture supernatant when using QUANTI-Luc™ and QUANTI-Blue™ detection reagents, respectively. Identified “hits” were confirmed in a secondary screen with an 8-point dose response curve. Hits were further screened for activity in the mouse using the mouse J774 macrophage-like cell line containing the identical reporter constructs (J774-Dual, Invivogen).
The OTRADI Small Molecule Library of approximately 246,000 diverse compounds (see below for description) was screened using the THP1-Dual based HTS platform described above. All transfer steps in the screen are fully automated, thus reducing variability. Primary screening included a single data point or dose for each molecule. After data normalization was applied for each assay run, “hit” selection was performed on the plates that pass the quality control (QC) criterion. Hits were defined as samples having values above the activity cutoff determined based on noise level of the assay to reduce false positive rates. In the pilot study discussed above this activity value was >3σ above the ISRE mean with the added criteria of NFκB activation being lower than […] from the mean to identify IRF selective compounds. The ratio of ISRE:NFκB activity was also calculated as a selectivity index for prioritizing hit selection. Primary hits underwent secondary screening to determine the 50% effective concentration (EC50) and 50% cytotoxic concentration (CC50) of these agents using an 8-point dose-response curve in the human THP1-Dual cells. Cytotoxicity was measured in the plate using Cell Titer Glo (Promega). Identified candidate compounds were further screened (orthogonal screen) for cross species activity in the validated mouse J774-Dual assay using an 8-point dose-response format to determine EC50 and CC50 values as well as ISRE:NFκB ratios. A general process flow for the experimental design laid out above is depicted at FIG. 12.

[4] = Mus musculus, J774, Mouse Reporter Cell Line, 8-point dose response
[5] = Mus musculus, J774, Mouse Reporter Cell Line, 8-point dose response, read-out: J774 IRF EC50
[6] = Mouse Reporter Cell Line J774, at peak
[7] = Mus musculus, J774, Mouse Reporter Cell Line J774, read-out: J774 IRF EC50
[8] = Mus musculus, J774, Mouse Reporter Cell Line J774

Compound | CC50 ([2]; Mouse Reporter Cell Line) [µM] | EC50 [3, 4] [µM] | J774 IRF % activation at peak ([1]; Mouse Reporter Cell Line) [%] | EC50 [1, 5] [µM] | CC50 ([2]; Mouse Reporter Cell Line J774) [µM] | J774 IRF % activation at peak [1, 6] [%] | also measured
Cc1ccc2c(=O)c3cccc(CC(=O)O)c3oc2c1C [DMXAA, 5,6-dimethylxanthenone-4-acetic acid] |  |  |  |  |  |  | EC50 ([1]; Mus musculus, J774-Dual control compound, read-out: EC50 ISRE activation): 24 µM
O=C(Nc1ccc(N2CCN(C(=O)c3cccs3)CC2)cc1)c1ccc(Cl)c2ccccc12 [NA13] | > 25 | ~2.86 | 3.434 | 0.821 |  |  | 
CCOc1cccc(COc2ccc(C(=O)Nc3ccc(N4CCN(C(=O)c5cccs5)CC4)cc3)cc2)c1 [NA42, 4-((3-ethoxybenzyl)oxy)-N-(4-(4-(thiophene-2-carbonyl)piperazin-1-yl)phenyl)benzamide] | 37.2 | 5.36 | 191.2 | 3.9 |  |  | 
O=C(Nc1ccc(N2CCN(C(=O)c3ccsc3)CC2)cc1)c1ccc(OCc2ccccc2)nc1 [NA-1] | 13.7 | ~3.19 | 67.54 | ~3.06 |  |  | 
O=C(Nc1ccc(N2CCN(C(=O)c3cccs3)CC2)cc1)c1ccc(Br)cc1 [NA-14] | > 25 |  | 4.471 | 5.23 |  |  | 
Cc1c(Br)ccc(C(=O)Nc2ccc(N3CCN(C(=O)c4cccs4)CC3)cc2)c1C [NA-16] | > 25 | 12.9 |  |  |  |  | 
O=C(Nc1ccc(N2CCN(C(=O)c3cccs3)CC2)cc1)c1sc2cc(Cl)ccc2c1Cl [NA-20] | 43.6 | ~4.75 | 29.98 | 4.19 |  |  | 
O=C(Nc1ccc(N2CCN(C(=O)c3cccs3)CC2)cc1)c1cccc2c(Br)cccc12 [NA-21, 5-bromo-N-{4-[4-(2-thienylcarbonyl)-1-piperazinyl]phenyl}-1-naphthamide] | 63.8 | 1.05 | 38.86 | 1.01 |  |  | 
O=C(Nc1ccc(N2CCN(C(=O)c3cccs3)CC2)cc1)c1ccc(OCc2ccc(F)c(F)c2F)cc1 [NA-23] | 22.1 | ~2.53 |  |  |  |  | 
COc1cccc(COc2ccc(C(=O)Nc3ccc(N4CCN(C(=O)c5cccs5)CC4)cc3)cc2)c1 [NA-24, 4-((3-methoxybenzyl)oxy)-N-(4-(4-(thiophene-2-carbonyl)piperazin-1-yl)phenyl)benzamide] | 36.2 |  | 111.2 | 4.67 |  |  | 
Cc1ccc(COc2ccc(C(=O)Nc3ccc(N4CCN(C(=O)c5cccs5)CC4)cc3)cc2)cc1 [NA-25] | > 25 | 8.15 | 18.01 | 4.38 |  |  | 
CCOc1ccc(C(=O)Nc2ccc(N3CCN(C(=O)c4cccs4)CC3)cc2)cc1Br [NA-30] | 40.7 |  | 2.95 | ~3.33 |  |  | 
O=C(Nc1ccc(N2CCN(C(=O)c3cccs3)CC2)cc1)c1ccc(-c2cc3ccccc3oc2=O)cc1 [NA-32] | 67.2 |  | 77.58 | 11.9 |  |  | 
O=C(Nc1ccc(N2CCN(C(=O)c3cccs3)CC2)cc1)c1ccc(OCc2cccc(Cl)c2)cc1 [NA-33] | 25.5 | 3.81 | 15.46 | 2.64 |  |  | 
O=C(Nc1ccc(N2CCN(C(=O)c3cccs3)CC2)cc1)c1ccc(-c2ccncc2)cc1 [NA-38] | > 25 |  | 2.98 | ~10.2 |  |  | 
O=C(Nc1ccc(N2CCN(C(=O)c3cccs3)CC2)cc1)c1ccc(-c2ccccc2)cn1 [NA-39] | > 25 |  | 77.89 | 9.81 |  |  | 
O=C(Nc1ccc(N2CCN(C(=O)c3cccs3)CC2)cc1)c1ccc(-c2ccccc2)nc1 [NA-41] | > 25 |  | 37.71 | 10.6 |  |  | 
Cc1ccc(NC(=O)c2cc(NC(=O)Cc3ccccc3)ccc2N2CCOCC2)cc1Cl [NB-3] |  |  |  |  | > 25 | 2.603 | EC50 [1, 7]: 8.54 µM
Cc1ccc(NC(=O)c2cc(NC(=O)c3cccs3)ccc2N2CCOCC2)cc1Cl [NB-8] |  |  |  |  | > 25 | 52.86 | EC50 [1, 7]: 5.67 µM
O=C(Nc1ccc(N2CCOCC2)c(C(=O)Nc2ccc(OCc3ccccc3)cc2)c1)c1cccs1 [NB-18] |  |  |  |  | > 25 | 2.303 | EC50 [1, 7]: ~4.84 µM
Cc1cc(NC(=O)c2sc3cc(Cl)ccc3c2Cl)ccc1NC(=O)c1ccco1 [NC-2] | > 25 |  | 4.6 | 14.6 |  |  | 
COc1ccc(C(=O)Nc2cc(-c3nc4ccccc4s3)ccc2C)cc1[N+](=O)[O-] [ND52, N-[5-(1,3-benzothiazol-2-yl)-2-methylphenyl]-4-methoxy-3-nitrobenzamide] |  |  |  |  |  | 131.7 | EC50 [3, 8]: 7.53 µM; EC50 [1, 7]: 5.87 µM
CC(C)CC(=O)Nc1ccc2oc(-c3cccc(I)c3)nc2c1 [ND-5] |  |  |  |  | > 25 | 12.45 | EC50 [1, 7]: ~12.9 µM
O=C(Cc1ccc(Cl)cc1)Nc1cccc(-c2nnc(-c3ccco3)o2)c1 [ND-7] |  |  |  |  | > 25 |  | EC50 [3, 8]: 30.6 µM
COc1ccc(C(=O)Nc2cc(-c3nc4ccccc4s3)ccc2C)cc1[N+](=O)[O-] [ND-38] |  |  |  |  |  | 114 | EC50 ([3]; Mouse Reporter Cell Line J774): 12 µM; EC50 ([1]; Mouse Reporter Cell Line J774, read-out: J774 IRF EC50): 7.67 µM
COc1ccc(C(=O)Nc2cccc(-c3nc4ncccc4o3)c2)cc1Br [ND-47] |  |  |  |  | > 25 |  | EC50 [3, 8]: 9.71 µM
Cc1ccc(-c2nc3ccccc3s2)cc1NC(=O)c1cccc(Cl)c1 [ND-80] |  |  |  |  | > 25 | 26.88 | EC50 [1, 7]: ~10.1 µM
ClCCCOc1ccc(-c2nc3cc(OCCCN4CCCC4)ccc3o2)cc1 [ND-94] |  |  |  |  | > 25 | 5.09 | EC50 [1, 7]: 4.53 µM
COCOc1ccc2oc(-c3ccc(C)c([N+](=O)[O-])c3)nc2c1 [ND-96] |  |  |  |  | > 25 | 5.389 | EC50 [1, 7]: 18.9 µM
